Results reported in PubChem BioAssay AID1259407 (Chemical Carcinogenesis Research Information System (CCRIS), 2018).
Activity calls are given as the source filed them. How the calls were made is not given here.

System: CCRIS mutagenicity, Ames/micronucleus/aberration tests
Test: CCRIS mutagenicity studies
[1] = Test System: AMES SALMONELLA TYPHIMURIUM, Strain/Indicator: TA97, Metabolic Activation: NONE, Method: STANDARD PLATE
[2] = Test System: AMES SALMONELLA TYPHIMURIUM, Strain/Indicator: TA100, Metabolic Activation: NONE, Method: STANDARD PLATE
[3] = Test System: AMES SALMONELLA TYPHIMURIUM, Strain/Indicator: TA1537, Metabolic Activation: NONE, Method: STANDARD PLATE
[4] = Test System: AMES SALMONELLA TYPHIMURIUM, Strain/Indicator: TA1538, Metabolic Activation: NONE, Method: STANDARD PLATE
[5] = Test System: AMES SALMONELLA TYPHIMURIUM, Strain/Indicator: TA98, Metabolic Activation: NONE, Method: STANDARD PLATE
[6] = Test System: AMES SALMONELLA TYPHIMURIUM, Strain/Indicator: TA98, Metabolic Activation: RAT, LIVER, S-9, AROCLOR 1254, Method: STANDARD PLATE
[7] = Test System: AMES SALMONELLA TYPHIMURIUM, Strain/Indicator: TA100, Metabolic Activation: RAT, LIVER, S-9, AROCLOR 1254, Method: STANDARD PLATE
[8] = Test System: AMES SALMONELLA TYPHIMURIUM, Strain/Indicator: TA1535, Metabolic Activation: NONE, Method: STANDARD PLATE

For `C[n+]1ccn(CCS(C)(=O)=O)c1/C=N/O`, the mutagenic call [1] was “inactive; negative”, the mutagenic call (Test System: AMES SALMONELLA TYPHIMURIUM, Strain/Indicator: TA97, Metabolic Activation: RAT, LIVER, S-9, Method: STANDARD PLATE) was “inactive; negative” and the mutagenic call [2] was “inactive; negative”. The mutagenic call (Test System: AMES SALMONELLA TYPHIMURIUM, Strain/Indicator: TA100, Metabolic Activation: RAT, LIVER, S-9, Method: STANDARD PLATE) was “inactive; negative”, the mutagenic call (Test System: AMES SALMONELLA TYPHIMURIUM, Strain/Indicator: TA104, Metabolic Activation: NONE, Method: STANDARD PLATE) was “inactive; negative” and the mutagenic call (Test System: AMES SALMONELLA TYPHIMURIUM, Strain/Indicator: TA104, Metabolic Activation: RAT, LIVER, S-9, Method: STANDARD PLATE) was “inactive; negative”. For the same compound, the mutagenic call [3] was “inactive; negative”, the mutagenic call (Test System: AMES SALMONELLA TYPHIMURIUM, Strain/Indicator: TA1537, Metabolic Activation: RAT, LIVER, S-9, Method: STANDARD PLATE) was “inactive; negative” and the mutagenic call [4] was “inactive; negative”. The mutagenic call (Test System: AMES SALMONELLA TYPHIMURIUM, Strain/Indicator: TA1538, Metabolic Activation: RAT, LIVER, S-9, Method: STANDARD PLATE) was “inactive; negative”.
For `CC(=O)n1ccnc1`, the mutagenic call [1] was “inactive; negative”, the mutagenic call (Test System: AMES SALMONELLA TYPHIMURIUM, Strain/Indicator: TA97, Metabolic Activation: RAT, LIVER, S-9, AROCLOR 1254, Method: STANDARD PLATE) was “inactive; negative” and the mutagenic call [5] was “inactive; negative”. The mutagenic call [6] was “inactive; negative”, the mutagenic call [2] was “inactive; negative” and the mutagenic call [7] was “inactive; negative”. The mutagenic call (Test System: AMES SALMONELLA TYPHIMURIUM, Strain/Indicator: TA102, Metabolic Activation: NONE, Method: STANDARD PLATE) was “inactive; negative” and the mutagenic call (Test System: AMES SALMONELLA TYPHIMURIUM, Strain/Indicator: TA102, Metabolic Activation: RAT, LIVER, S-9, AROCLOR 1254, Method: STANDARD PLATE) was “inactive; negative”.
`N#Cc1ccc(/C=C/c2ccc([N+](=O)[O-])cc2)cc1` was tested, and the mutagenic call (Test System: AMES SALMONELLA TYPHIMURIUM, Strain/Indicator: TA98 (NR), Metabolic Activation: NONE, Method: STANDARD PLATE) was “active; positive”, the mutagenic call (Test System: AMES SALMONELLA TYPHIMURIUM, Strain/Indicator: TA98 (NR), Metabolic Activation: S-9, Method: STANDARD PLATE) was “active; positive” and the mutagenic call (Test System: AMES SALMONELLA TYPHIMURIUM, Strain/Indicator: TA98, Metabolic Activation: RAT, LIVER, S-9, AROCLOR, Method: STANDARD PLATE) was “active; positive”. For the same compound, the mutagenic call (Test System: AMES SALMONELLA TYPHIMURIUM, Strain/Indicator: TA98, Metabolic Activation: S-9, Method: STANDARD PLATE) was “active; positive”, the mutagenic call (Test System: AMES SALMONELLA TYPHIMURIUM, Strain/Indicator: TA100 (NR), Metabolic Activation: NONE, Method: STANDARD PLATE) was “inactive; negative” and the mutagenic call (Test System: AMES SALMONELLA TYPHIMURIUM, Strain/Indicator: TA100(NR), Metabolic Activation: S-9, Method: STANDARD PLATE) was “inactive; negative”. The mutagenic call (Test System: AMES SALMONELLA TYPHIMURIUM, Strain/Indicator: TA100, Metabolic Activation: RAT, LIVER, S-9, AROCLOR, Method: STANDARD PLATE) was “active; positive” and the mutagenic call (Test System: AMES SALMONELLA TYPHIMURIUM, Strain/Indicator: TA100, Metabolic Activation: S-9, Method: STANDARD PLATE) was “active; positive”.
In the case of `Cc1c(C)c2c(c(C)c1O)CC[C@@](C)(CCC[C@H](C)CCC[C@H](C)CCCC(C)C)O2`, the mutagenic call [5] is reported as “inactive; negative”, the mutagenic call [6] is reported as “inactive; negative” and the mutagenic call [2] is reported as “inactive; negative”. For the same compound, the mutagenic call [7] was “inactive; negative”, the mutagenic call [8] was “inactive; negative” and the mutagenic call (Test System: AMES SALMONELLA TYPHIMURIUM, Strain/Indicator: TA1535, Metabolic Activation: RAT, LIVER, S-9, AROCLOR 1254, Method: STANDARD PLATE) was “inactive; negative”. For the same compound, the mutagenic call [3] was “inactive; negative”, the mutagenic call (Test System: AMES SALMONELLA TYPHIMURIUM, Strain/Indicator: TA1537, Metabolic Activation: RAT, LIVER, S-9, AROCLOR 1254, Method: STANDARD PLATE) was “inactive; negative” and the mutagenic call [4] was “inactive; negative”. For the same compound, the mutagenic call (Test System: AMES SALMONELLA TYPHIMURIUM, Strain/Indicator: TA1538, Metabolic Activation: RAT, LIVER, S-9, AROCLOR 1254, Method: STANDARD PLATE) was “inactive; negative”, the mutagenic call (Test System: E. COLI, Strain/Indicator: WP2, Metabolic Activation: NONE, Method: STANDARD PLATE) was “inactive; negative” and the mutagenic call (Test System: E. COLI, Strain/Indicator: WP2, Metabolic Activation: RAT, LIVER, S-9, AROCLOR 1254, Method: STANDARD PLATE) was “inactive; negative”.
With `O=C([O-])c1ccc2ccccc2c1.O=C([O-])c1ccc2ccccc2c1.[Pb+2]` the mutagenic call (Test System: MOUSE LYMPHOMA, Strain/Indicator: L5178Y (TK+/TK-), Metabolic Activation: NONE, Method: SUSPENSION/PLATE) was “active; positive. reevaluation of results: equivocal”.
In the case of `C/C(=C(/OCCOc1ccc(Cl)cc1)c1ccc(Cl)cc1Cl)n1ccnc1`, the mutagenic call [5] is reported as “inactive; negative”, the mutagenic call (Test System: AMES SALMONELLA TYPHIMURIUM, Strain/Indicator: TA98, Metabolic Activation: RAT, LIVER, S-9, PHENOBARBITAL AND 5,6-BENZOFLAVONE, Method: STANDARD PLATE) is reported as “inactive; negative” and the mutagenic call [2] is reported as “inactive; negative”. The mutagenic call (Test System: AMES SALMONELLA TYPHIMURIUM, Strain/Indicator: TA100, Metabolic Activation: RAT, LIVER, S-9, PHENOBARBITAL AND 5,6-BENZOFLAVONE, Method: STANDARD PLATE) was “inactive; negative”, the mutagenic call [8] was “inactive; negative” and the mutagenic call (Test System: AMES SALMONELLA TYPHIMURIUM, Strain/Indicator: TA1535, Metabolic Activation: RAT, LIVER, S-9, PHENOBARBITAL AND 5,6-BENZOFLAVONE, Method: STANDARD PLATE) was “inactive; negative”. For the same compound, the mutagenic call [3] was “inactive; negative”, the mutagenic call (Test System: AMES SALMONELLA TYPHIMURIUM, Strain/Indicator: TA1537, Metabolic Activation: RAT, LIVER, S-9, PHENOBARBITAL AND 5,6-BENZOFLAVONE, Method: STANDARD PLATE) was “inactive; negative” and the mutagenic call (Test System: E. COLI, Strain/Indicator: WP2 UVRA, Metabolic Activation: NONE, Method: STANDARD PLATE) was “inactive; negative”. For the same compound, the mutagenic call (Test System: E. COLI, Strain/Indicator: WP2 UVRA, Metabolic Activation: RAT, LIVER, S-9, PHENOBARBITAL AND 5,6-BENZOFLAVONE, Method: STANDARD PLATE) was “inactive; negative”.
For `Nc1cc2c3c(ccc2c2ccccc12)[C@H](O)[C@@H](O)C=C3`, the mutagenic call (Test System: AMES SALMONELLA TYPHIMURIUM, Strain/Indicator: TA98, Metabolic Activation: NONE, Method: PREINCUBATION) was “inactive; negative”, the mutagenic call (Test System: AMES SALMONELLA TYPHIMURIUM, Strain/Indicator: TA98, Metabolic Activation: RAT, LIVER, S-9, AROCLOR 1254, Method: PREINCUBATION) was “inactive; negative” and the mutagenic call (Test System: AMES SALMONELLA TYPHIMURIUM, Strain/Indicator: TA100, Metabolic Activation: NONE, Method: PREINCUBATION) was “active; positive”. The mutagenic call (Test System: AMES SALMONELLA TYPHIMURIUM, Strain/Indicator: TA100, Metabolic Activation: RAT, LIVER, S-9, AROCLOR 1254, Method: PREINCUBATION) was “active; positive”, the mutagenic call (Test System: CHINESE HAMSTER OVARY, Strain/Indicator: CHO-K1-BH4 (HGPRT)/6-THIOGUANINE, Metabolic Activation: NONE, Method: STANDARD PLATE) was “inactive; negative” and the mutagenic call (Test System: CHINESE HAMSTER OVARY, Strain/Indicator: CHO-K1-BH4 (HGPRT)/6-THIOGUANINE, Metabolic Activation: RAT, LIVER, S-9, AROCLOR 1254, Method: STANDARD PLATE) was “active; positive”. The mutagenic call (Test System: CHINESE HAMSTER OVARY, Strain/Indicator: CHO-UV5 (HGPRT)/6-THIOGUANINE, Metabolic Activation: NONE, Method: STANDARD PLATE) was “inactive; negative” and the mutagenic call (Test System: CHINESE HAMSTER OVARY, Strain/Indicator: CHO-UV5 (HGPRT)/6-THIOGUANINE, Metabolic Activation: RAT, LIVER, S-9, AROCLOR 1254, Method: STANDARD PLATE) was “active; positive”.
